Measured values from patent US9056922B2, “Chimeric relaxin polypeptides comprising an A and B chain derived from different relaxin family peptides” (HOWARD FLOREY INSTITUTE OF EX[…] MEDICINE, priority 2007, dated 2015).

How the values were obtained:
[1] = target: LGR8 (RXFP2) receptor (Homo sapiens, UniProt Q8WXD0); assay: cell-based
Text: Data are presented as the mean±S.E.M. of at least 1 experiment (number performed shown in parentheses in Table 1) performed in triplicate.

[2] = target: T1, LGR7 (RXFP1) receptor (Homo sapiens, UniProt Q9HBX9); assay: cAMP reporter gene assay (pCRE-β-galactosidase) in LGR7-expressing cells; assay type: cell-based
T1 construct: expressed in transfected cells; host or cells: HEK-293T
T1 sequence (Q9HBX9 1-757): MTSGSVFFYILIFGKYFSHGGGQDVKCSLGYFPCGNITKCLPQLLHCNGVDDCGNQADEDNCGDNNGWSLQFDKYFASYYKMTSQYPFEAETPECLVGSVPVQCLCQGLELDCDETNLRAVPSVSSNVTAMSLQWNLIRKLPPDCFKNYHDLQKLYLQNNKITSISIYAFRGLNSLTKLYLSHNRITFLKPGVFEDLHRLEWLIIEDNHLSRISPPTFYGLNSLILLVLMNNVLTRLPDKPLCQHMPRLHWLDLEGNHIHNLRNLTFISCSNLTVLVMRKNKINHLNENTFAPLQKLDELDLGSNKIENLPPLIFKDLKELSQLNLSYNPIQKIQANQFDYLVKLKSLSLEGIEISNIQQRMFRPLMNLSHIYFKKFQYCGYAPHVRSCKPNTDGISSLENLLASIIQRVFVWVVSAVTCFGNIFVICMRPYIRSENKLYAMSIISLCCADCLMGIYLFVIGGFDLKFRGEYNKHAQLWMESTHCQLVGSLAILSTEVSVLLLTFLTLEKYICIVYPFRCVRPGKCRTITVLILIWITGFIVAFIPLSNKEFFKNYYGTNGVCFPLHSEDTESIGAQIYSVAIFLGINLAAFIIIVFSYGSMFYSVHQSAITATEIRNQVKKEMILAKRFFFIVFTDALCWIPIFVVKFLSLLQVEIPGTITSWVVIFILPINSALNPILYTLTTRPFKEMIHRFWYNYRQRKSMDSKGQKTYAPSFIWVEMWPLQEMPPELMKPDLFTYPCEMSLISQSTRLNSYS
Method: In the present study the inventors investigated the ability of chimeric polypeptides generated herein (see Example 1) to stimulate cAMP production in cells expressing either the LGR7 or LGR8 receptor.
Receptor cAMP signaling was assessed using a cAMP reporter gene assay. […] Transfected cells were incubated with increasing concentrations of peptides for 6 hrs after which the media was aspirated and the cells frozen at −80° C. overnight. The amount of cAMP-driven β-galactosidase expression in each well was determined by incubating the cells in 25 μl of lysis buffer (10 mM Na2HPO4, pH 8.0, 0.2 mM MgSO4, 0.01 mM MnCl2) for 10 minutes, 100 μl of assay buffer (100 mM Na2HPO4, pH 8.0, 2 mM MgSO4, 0.1 mM MnCl2, 0.5% Triton X-100, 40 mM B-mercaptoethanol) for a further 10 minutes before 25 μL of enzyme substrate solution (1 mg/ml chlorophenol red B-D galactopyranoside (Roche) in 100 mM Na2HPO4, pH 8.0, 2 mM MgSO4, 0.1 mM MnCl2) was added to each well and the plate incubated for 3 h or overnight. The absorbance of each well was determined at 570 nm using a Ceres UV900C plate reader (Bio-Tek Instruments, Vermont, USA).
All experiments were repeated at least three times with triplicate determinations within each assay.
Data are presented as the mean±S.E.M. of […] (number performed shown in parentheses in Table 1) performed in triplicate.

[3] = target: T2, LGR7 receptor (Homo sapiens, UniProt Q9HBX9); assay: Whole cell [125I]-labelled H2 relaxin competition binding assay
T2 construct: expressed in transfected cells; host or cells: HEK293T
T2 sequence (Q9HBX9 1-757): T1 sequence (Q9HBX9 1-757)
Method: Briefly, HEK293T cells were plated out into 24-well plates (450,000 cells per well) or 48-well plates (225,000 cells per well), and transfected with pcDNA3.1/zeo plasmid containing the receptor of interest the following day as described above in Example 2. […] Non-specific binding was determined by addition of excess unlabelled relaxin (500 nM). Data were analysed using GraphPad Prism.

Chain of LGR8 (RXFP2) receptor (Q8WXD0 whole entry): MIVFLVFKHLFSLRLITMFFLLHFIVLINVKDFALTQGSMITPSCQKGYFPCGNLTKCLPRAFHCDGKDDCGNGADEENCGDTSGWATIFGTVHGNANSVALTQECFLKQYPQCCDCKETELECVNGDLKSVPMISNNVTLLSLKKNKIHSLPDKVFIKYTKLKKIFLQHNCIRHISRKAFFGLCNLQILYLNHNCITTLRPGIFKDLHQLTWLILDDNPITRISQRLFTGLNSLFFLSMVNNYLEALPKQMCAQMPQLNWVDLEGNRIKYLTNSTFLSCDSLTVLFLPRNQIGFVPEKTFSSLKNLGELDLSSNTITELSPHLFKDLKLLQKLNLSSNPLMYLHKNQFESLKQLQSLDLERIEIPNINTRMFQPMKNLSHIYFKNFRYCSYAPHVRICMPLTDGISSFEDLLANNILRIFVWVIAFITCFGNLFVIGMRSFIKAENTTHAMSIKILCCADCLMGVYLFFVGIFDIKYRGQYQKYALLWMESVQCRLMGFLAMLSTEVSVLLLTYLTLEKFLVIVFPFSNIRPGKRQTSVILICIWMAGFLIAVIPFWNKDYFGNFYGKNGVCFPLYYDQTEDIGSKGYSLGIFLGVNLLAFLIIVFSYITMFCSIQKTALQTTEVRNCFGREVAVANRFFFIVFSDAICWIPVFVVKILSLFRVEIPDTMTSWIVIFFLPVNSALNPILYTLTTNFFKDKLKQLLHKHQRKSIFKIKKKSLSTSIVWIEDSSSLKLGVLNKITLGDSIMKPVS

SMILES	EC50 [1] [µM]	EC50 [2] [nM]	Ki [3] [nM]
CC[C@H](C)[C@@H]1NC(=O)[C@H](C)NC(=O)[C@H]([C@@H](C)CC)NC(=O)[C@H](CCC(N)=O)NC(=O)[C@H](C)NC(=O)[C@H](CCCNC(=N)N)NC(=O)[C@H](C(C)C)NC(=O)[C@H](CC(C)C)NC(=O)[C@H](CCC(=O)O)NC(=O)[C@H](CCCNC(=N)N)NC(=O)CNC(=O)[C@@H](NC(=O)[C@H](CC(C)C)NC(=O)[C@H](CCCCN)NC(=O)[C@@H](NC(=O)[C@@H](NC(=O)[C@H](CCC(=O)O)NC(=O)[C@H](CCC(=O)O)NC(=O)[C@H](CCSC)NC(=O)[C@H](Cc2c[nH]c3ccccc23)NC(=O)[C@H](CO)NC(=O)[C@@H](N)CC(=O)O)C(C)C)[C@@H](C)CC)CSSC[C@@H]2NC(=O)[C@@H](NC(=O)[C@H](CO)NC(=O)[C@H](CO)NC(=O)[C@H](CO)NC(=O)[C@H](CC(C)C)NC(=O)CNC(=O)[C@H](C)NC(=O)[C@H](CC(C)C)NC(=O)[C@@H](NC(=O)[C@@H](N)CC(=O)O)C(C)C)CSSC[C@H](NC(=O)CNC(=O)[C@H](Cc3c[nH]c4ccccc34)NC(=O)[C@H](CCCCN)NC2=O)C(=O)N[C@@H](CO)C(=O)N[C@@H](CCCCN)C(=O)N[C@@H](CO)C(=O)N[C@@H](CCC(=O)O)C(=O)N[C@@H]([C@@H](C)CC)C(=O)N[C@@H](CO)C(=O)N[C@@H](CO)C(=O)N[C@@H](CC(C)C)C(=O)N[C@H](C(=O)O)CSSC[C@@H](C(=O)NCC(=O)N[C@@H](CCSC)C(=O)N[C@@H](CO)C(=O)N[C@H](C(=O)N[C@@H](Cc2c[nH]c3ccccc23)C(=O)N[C@@H](CO)C(=O)O)[C@@H](C)O)NC1=O [H2-B/H3-A]	4.57	7.94	158
CC[C@H](C)[C@@H]1NC(=O)[C@H](C)NC(=O)[C@H]([C@@H](C)CC)NC(=O)[C@H](CCC(N)=O)NC(=O)[C@H](C)NC(=O)[C@H](CCCNC(=N)N)NC(=O)[C@H](C(C)C)NC(=O)[C@H](CC(C)C)NC(=O)[C@H](CCC(=O)O)NC(=O)[C@H](CCCNC(=N)N)NC(=O)CNC(=O)[C@@H](NC(=O)[C@H](CC(C)C)NC(=O)[C@H](CCCCN)NC(=O)[C@@H](NC(=O)[C@@H](NC(=O)[C@H](CCC(=O)O)NC(=O)[C@H](CCC(=O)O)NC(=O)[C@H](CCSC)NC(=O)[C@H](Cc2c[nH]c3ccccc23)NC(=O)[C@H](CO)NC(=O)[C@@H](N)CC(=O)O)C(C)C)[C@@H](C)CC)CSSC[C@@H]2NC(=O)[C@@H](NC(=O)[C@H](Cc3ccc(O)cc3)NC(=O)[C@H](CCCNC(=N)N)NC(=O)[C@H](C)NC(=O)[C@@H]3CCCN3C(=O)[C@H](CC(N)=O)NC(=O)[C@@H](NC(=O)[C@H](C)NC(=O)[C@H](C)NC(=O)[C@H](C)N)[C@@H](C)O)CSSC[C@H](NC(=O)CNC(=O)[C@H](CO)NC(=O)[C@H](CC(C)C)NC2=O)C(=O)N[C@@H]([C@@H](C)O)C(=O)N[C@@H](CCC(N)=O)C(=O)N[C@@H](CCC(N)=O)C(=O)N[C@@H](CC(=O)O)C(=O)N[C@@H](CC(C)C)C(=O)N[C@@H](CC(C)C)C(=O)N[C@@H]([C@@H](C)O)C(=O)N[C@@H](CC(C)C)C(=O)N[C@H](C(=O)N2CCC[C@H]2C(=O)N[C@@H](Cc2ccc(O)cc2)C(=O)O)CSSC[C@@H](C(=O)NCC(=O)N[C@@H](CCSC)C(=O)N[C@@H](CO)C(=O)N[C@H](C(=O)N[C@@H](Cc2c[nH]c3ccccc23)C(=O)N[C@@H](CO)C(=O)O)[C@@H](C)O)NC1=O [H2-B/INSL3-A]	< 1	> 1000	617
